Experimental data taken from US20130189741A1, “COMPOSITIONS AND METHODS FOR REPROGRAMMING MAMMALIAN CELLS” (Cellscript, Inc., priority 2009, published 2013).

Test system: BJ fibroblasts
Test: Feeder-free reprogramming of BJ fibroblasts to iPSCs on MATRIGEL GFR matrix (Example 11)
Type: cell-based, human
Settings: Day 17
Description: In EXAMPLE 11 embodiments, each in vitro-synthesized pseudouridine-containing ssRNA (i.e., synthesized using ΨTP in place of UTP in the IVT reaction) that encoded an iPSC induction factor [e.g., OCT4, SOX2, KLF4, LIN28, and either cMYC or cMYC(T58A)] or other pseudo-uridine-containing ssRNAs transfected together with the iPSC induction factors was treated with RNase III with 1 mM Mg(OAc)2 prior to capping and tailing of the ssRNA. In this EXAMPLE 11, the RNAse III treatment reactions also contained 0.8 U/microliter SCRIPTGUARD™ RNase inhibitor (CELLSCRIPT, INC.).
Prior to use for reprogramming, BJ fibroblasts (ATCC) were plated 5×10^4 cells per well on 6-well tissue culture plates coated with 83 ng per well of MATRIGEL™ GFR matrix (BD Biosciences, San Jose, Calif.) in Advanced MEM (Invitrogen, Carlsbad, Calif.) supplemented with 10% FBS (Fisher) and 2 mM GLUTAMAX™-I (Invitrogen, Carlsbad, Calif.), a minimum essential medium (MEM) useful for growth of fibroblast cells.
On the following day, the medium was changed to a “Feeder-free Reprogramming Medium” developed by the present applicants. This Feeder-free Reprogramming Medium was composed of Dulbecco's modified Eagle medium with nutrient mixture F-12 (DMEM/F12; (DMEM/F12; Invitrogen, Carlsbad, Calif.) supplemented with 20% KNOCKOUT™ serum replacement (Invitrogen), 2 mM GLUTAMAX™-I (Invitrogen), 0.1 mM non-essential amino acids solution (Invitrogen), 2 micromolar of the transforming growth factor 0 (TGFβ) inhibitor STEMOLECULE™ SB431542 (Stemgent®, Cambridge, Mass., USA), 0.5 micromolar of the MEK signaling pathway inhibitor STEMOLECULE™ PD0325901 (Stemgent), and/or 10 ng/ml the recombinant mouse cytokine, leukemia inhibitory factor (LIF or mLIF; Invitrogen, Carlsbad, Calif.), and 100 ng/ml basic human recombinant fibroblast growth factor (FGF; Invitrogen) with penicillin-streptomycin antibiotics. In some experiments, a lower or higher concentration of one or more of these inhibitors is used (e.g., 1-20 micromolar of the TGFβ inhibitor, 0.5-10 micromolar of the MEK signaling inhibitor, and/or 5-50 ng/ml the recombinant mouse cytokine, leukemia inhibitory factor). Since some of the molecules being inhibited may be introduced by the reagents or media used (e.g., TGFβ in the MATRIGEL™ or other extracellular matrix, the concentrations of the inhibitors used may vary based on the reagents and media used. In some experiments, the TGFβ inhibitor, MEK signaling inhibitor, and/or LIF was omitted from the feeder-free reprogramming medium. The Feeder-free Reprogramming Medium was changed daily one hour prior to each transfection with mRNA reprogramming factors. […] kit (Minis Bio LLC, Madison, Wis., USA) as described in the product literature: Briefly, a solution comprising a mixture of all of the mRNA reprogramming factors was diluted with 250 microliters of OPTI-MEM® I reduced serum medium (Invitrogen, Carlsbad, Calif.), and then 2.4 microliters of TRANSIT™ BOOST was added and mixed, followed by 2.4 microliters of the TRANSIT™ transfection reagent. In some embodiments, no inhibitor of expression of an innate immune response pathway was used. In some other embodiments, 132 ng of pseudouridine-containing mRNA encoding the B18R protein was added to the reprogramming factors comprising mRNA encoding OCT4, SOX2, KLF4, LIN28, and cMYC for reprogramming BJ fibroblasts. This transfection mix was applied dropwise to cells. Cells were then incubated at 37° C. in 5% CO2 until the next day's transfection. After 18 transfections, the medium was changed to a different “iPSC Maintenance Medium” that that was composed of DMEM/F12 supplemented with 20% KNOCKOUT™ serum replacement, 1 mM L-glutamine, 0.1 mM non-essential amino acids solution, and 100 ng/ml basic human recombinant fibroblast growth factor (FGF) (all from Invitrogen, Carlsbad, Calif.) with penicillin-streptomycin antibiotics for a few more days until iPSC colonies were big enough to pick manually. […]

SMILES	iPSC Colonies Observed (PD0325901 0 μM, 2 micromolar SB431542)	iPSC Colonies Observed (PD0325901 0.5 μM, 2 micromolar SB431542)	iPSC Colonies Observed (PD0325901 1 μM, 2 micromolar SB431542)	iPSC Colonies Observed (PD0325901 2 μM, 2 micromolar SB431542)	iPSC Colonies Observed (PD0325901 10 μM, 2 micromolar SB431542)	iPSC Colonies Observed (PD0325901 15 μM, 2 micromolar SB431542)	iPSC Colonies Observed (SB431542 0 μM, five-factor Ψ-mRNA mix daily for 17 days)	iPSC Colonies Observed (SB431542 1 μM)	iPSC Colonies Observed (SB431542 2 μM)	iPSC Colonies Observed (SB431542 4 μM)
O=C(NOC[C@H](O)CO)c1ccc(F)c(F)c1Nc1ccc(I)cc1F [PD0325901]	1	77	27	94	11	0	–	–	–	–
NC(=O)c1ccc(-c2nc(-c3ccc4c(c3)OCO4)c(-c3ccccn3)[nH]2)cc1 [SB431542]	–	–	–	–	–	–	0	9	71	160
